In experiment [1] the target is T1, 5-HT3A receptors (Homo sapiens, UniProt P46098).
T1 construct: expressed in transfected cells; host or cells: Xenopus oocytes injected with cRNA (pGEMHE)
T1 sequence (P46098 24-478): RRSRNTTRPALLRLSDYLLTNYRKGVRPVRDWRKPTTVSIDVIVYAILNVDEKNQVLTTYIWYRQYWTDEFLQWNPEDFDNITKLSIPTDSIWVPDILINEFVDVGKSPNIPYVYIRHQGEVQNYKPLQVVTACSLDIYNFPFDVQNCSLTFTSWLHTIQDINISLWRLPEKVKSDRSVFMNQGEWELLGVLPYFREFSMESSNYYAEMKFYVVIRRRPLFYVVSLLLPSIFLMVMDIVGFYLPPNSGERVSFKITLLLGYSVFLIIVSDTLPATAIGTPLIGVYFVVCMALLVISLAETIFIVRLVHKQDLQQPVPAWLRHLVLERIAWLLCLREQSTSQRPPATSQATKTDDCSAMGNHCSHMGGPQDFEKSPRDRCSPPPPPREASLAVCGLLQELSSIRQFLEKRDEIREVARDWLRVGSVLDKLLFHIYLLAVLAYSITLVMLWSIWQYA
It is filed as cell-based.

For experiment [2], the system named is 5-HT3 receptor. The conditions noted are these: cited from earlier work.
The target in experiment [3] is 5-HT3 receptor. Conditions: cited from earlier work. The source holds these as a separate data set.
The test system of experiment [4] is α7 nACh receptors. The conditions noted are these: cited from earlier work.
In experiment [5] the target is nicotinic acetylcholine receptors. Conditions: read-out: IC50, block of nicotinic acetylcholine receptors; cited from earlier work.
Experiment [6] concerns 5-HT3 receptors. Conditions: cited from earlier work.

Molecules are shown by their SMILES.

Consider `NCCc1c[nH]c2ccc(O)cc12` [5-HT], for which, in experiment [1], the “Hill slope of agonist concentration-response curve” value was 2.06 ± 0.14 and the “desensitisation time constant τ of inward current” value came to 42 ± 5 s. The term pA2 denotes a measure of antagonist potency on a negative log scale. The term pKd denotes the negative decadic logarithm of the Kd, by convention in mol/L. For the compound `CN1[C@@H]2C[C@@H](OC(=O)c3c[nH]c4ccccc34)C[C@H]1[C@@H]1O[C@@H]12` [SDZ-ICT 322], in experiment [2], the pA2 is listed as 10.6. Moreover, the pKd in experiment [3] is 9.2. As a reminder, the IC50 is the concentration that gives 50% inhibition. With `CN1[C@@H]2C[C@@H](OC(=O)[C@H](CO)c3ccccc3)C[C@H]1[C@@H]1O[C@@H]12` [scopolamine], the “expression of α7 nACh receptors” value in experiment [4] is “increases the expression”. Moreover, the IC50 in experiment [5] was 928 µM. As to `CN1C2CCC1CC(OC(=O)c1ccccc1)C2` (stereo not shown) [tropane benzoate], the “affinity at 5-HT3 receptors” value in experiment [6] was 63 nM.
